Patent US20100240642A1, “1H-Indole-2-Carboxylic Acid Derivatives Useful As PPAR Modulators” (SMITHKLINE BEECHAM CORPORATION, priority 2006, published 2010)

Target: T1, hPPARγ receptor (Homo sapiens, UniProt P37231)
T1 construct: expressed in transfected cells; host or cells: CV-1 (African Green Monkey kidney, ATCC CCL-70)
T1 sequence (P37231 172-475 isoform P37231-2): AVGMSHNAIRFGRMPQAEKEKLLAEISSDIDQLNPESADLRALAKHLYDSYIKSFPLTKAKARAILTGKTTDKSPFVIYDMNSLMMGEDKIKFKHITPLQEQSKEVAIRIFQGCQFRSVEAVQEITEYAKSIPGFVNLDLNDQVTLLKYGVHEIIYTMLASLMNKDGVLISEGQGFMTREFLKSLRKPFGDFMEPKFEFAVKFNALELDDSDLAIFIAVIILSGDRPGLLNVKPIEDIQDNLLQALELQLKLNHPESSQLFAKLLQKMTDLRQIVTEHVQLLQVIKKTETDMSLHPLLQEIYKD
Assay: PPARγ Cell-based luciferase assay
Settings: CV-1 cells transfected with GAL4-hPPARγ LBD and UAStkLuc; at concentrations of 10^−6 M or less; read-out: agonism of the hPPARγ receptor (activation relative to full agonist rosiglitazone)
Excerpt: Plasmids—PCR primers containing Kpnl and BamHI restriction sites were used to amplify PPARγ ligand binding domain (LBD) fragment (172-475) from a full-length human clone. The LBD fragment was ligated into the multiple cloning site of pFA-CMV (Stratagene). The resulting construct (pFA-CMV-GAL4-hPPARγLBD carried a fusion of the LBD with the yeast-derived GAL4 DNA-binding domain under the control of the CMV immediate early promoter. Reporter construct UAStkLuc carries a single 17 bp (CGGAGTACTGTCCTCCG) upstream activating sequence (UAS), the tk minimal promoter, and the firefly luciferase gene. The integrity of each construct was confirmed by diagnostic restriction digestion and by sequencing. Plasmid DNA was prepared using Qiagen Maxi-Prep kits.
PPARγ Cell-based luciferase assay—African Green Monkey kidney cell line CV-1 (ATCC CCL-70) was maintained in Dulbecco's Modified Eagle's Medium (D-MEM) containing 10% fetal bovine serum, 2 mM glutamine, and 1% penicillin/streptomycin (pen/strep). In preparation for luciferase assays, CV-1 cells were grown in charcoal-stripped cell medium containing D-MEM/F-12 medium supplemented with 5% or 3% dextran-treated/charcoal-stripped (CS) fetal bovine serum, 2 mM glutamine, with or without 1% pen/strep, as described below. CS fetal bovine serum was purchased from Hyclone; all other cell culture reagents were from Gibco.
The luciferase protocol is a multi-day procedure. On day 1, confluent cells in maintenance medium were subcultured 1:10 into T-175 cm^2 flasks containing 50 mL of 3% CS medium with pen/strep. These flasks were allowed to incubate at 5% CO2 and 37° C. for 72 hours.
Cells were harvested by trypsinization and then transfected using FuGENE (Roche) according to the manufacturer's specifications. Briefly, each transfection contained 0.55 μg pFA_CMV_GAL4_hPPARγ_LBD plasmid, 10.9 μg UAStkLUC, and 24 μg pBluescript (carrier DNA). Plasmid DNA was mixed with FuGENE in OptiMEM-1 medium and incubated for 30 min at room temperature. During this incubation, cells were harvested into 3% CS medium without pen-strep and dispensed at 14 million cells per T-175 cm^2 flask. Transfection mixes were added to the flasks and incubated overnight at 5% CO2 and 37° C.
Transfected cells were added to 384-well plates containing pharmacological agents. Rosiglitazone standard was reconstituted in DMSO at 1 mM. For 11-point dose-response experiments, the compounds were 3-fold serially diluted in DMSO and then stamped to 384-well assay plates (NUNC, catalog #164564) at 0.5 μL/well using a Beckman FX. DMSO and agonist control compound Rosiglitazone (1 mM) were each stamped at 0.5 μL/well to columns 23 and 24, respectively, of the 384-well plates. Transfected cells were harvested in 5% CS medium with pen/strep and dispensed at 10,000 cells/well (50 μL) onto the prepared 384-well compound plates using a Titertek Multidrop. Following overnight incubation at 5% CO2 and 37° C., Steady-Glo reagent (Promega) was added to the assay plates using a Multidrop. Plates were incubated for 10 min to ensure complete cell lysis and read in a ViewLux (PerkinElmer). […] Partial agonism is defined here as 20-80% activation (relative to full agonist rosiglitazone) at concentrations of 10^−6 M or less.

Structure (SMILES)	Emax
CC(C)(C)c1ccc(-c2c(C(=O)O)n(Cc3cc(OCC4CC4)cc(C(F)(F)F)c3)c3ccccc23)cc1 [Example 65, 1-{[3-[(cyclopropylmethyl)oxy]-5-(trifluoromethyl)phenyl]methyl}-3-[4-(1,1-dimethylethyl)phenyl]-1H-indole-2-carboxylic acid]	20 to 80%
COCCOc1cc(Cn2c(C(=O)O)c(Cc3cccc(C(F)(F)F)c3)c3ccccc32)cc(OCC2CC2)c1 [Example 56, 1-[(3-[(cyclopropylmethyl)oxy]-5-{[2-(methyloxy)ethyl]oxy}phenyl)methyl]-3-{[3-(trifluoromethyl)phenyl]methyl}-1H-indole-2-carboxylic acid]	20 to 80%
COCCOc1cc(Cn2c(C(=O)O)c(-c3ccc(C(C)(C)C)cc3)c3ccccc32)cc(OCCOC)c1 [Example 66, 1-[(3,5-bis{[2-(methyloxy)ethyl]oxy}phenyl)methyl]-3-[4-(1,1-dimethylethyl)phenyl]-1H-indole-2-carboxylic acid]	20 to 80%
CC(=O)c1ccc(-c2c(C(=O)O)n(Cc3cc(-c4ccc(C(=O)O)cc4)ccc3C)c3ccccc23)cc1 [Example 14, 3-(4-acetylphenyl)-1-[(4′-carboxy-4-methyl-3-biphenylyl)methyl]-1H-indole-2-carboxylic acid]	20 to 80%
COCCOc1cc(Cn2c(C(=O)O)c(-c3ccc(C(C)(C)C)cc3)c3ccccc32)cc(-c2ccc(C(=O)O)cc2)c1 [Example 20]	20 to 80%
Cc1ccc(-c2ccc(OC(C)(C)C(=O)O)cc2)cc1Cn1c(C(=O)O)c(-c2ccc(C(C)(C)C)cc2)c2ccccc21 [Example 12, 1-({4′-[(1-carboxy-1-methylethyl)oxy]-4-methyl-3-biphenylyl}methyl)-3-[4-(1,1-dimethylethyl)phenyl]-1H-indole-2-carboxylic acid]	20 to 80%
COCCOc1cc(Cn2c(C(=O)O)c(Nc3ccc(C(C)(C)C)cc3)c3ccccc32)cc(OCCOC)c1 [Example 62, 1-[(3,5-bis{[2-(methyloxy)ethyl]oxy}phenyl)methyl]-3-{[4-(1,1-dimethylethyl)phenyl]amino}-1H-indole-2-carboxylic acid]	20 to 80%
COC(=O)N1CCN(c2cccc(Cn3c(C(=O)O)c(-c4ccc(C(C)(C)C)cc4)c4ccccc43)c2)CC1 [Example 36, 3-[4-(1,1-dimethylethyl)phenyl]-1-[(3-{4-[(methyloxy)carbonyl]-1-piperazinyl}phenyl)methyl]-1H-indole-2-carboxylic acid]	20 to 80%
COCCOC(=O)N1CCN(c2cccc(Cn3c(C(=O)O)c(-c4ccc(C(C)(C)C)cc4)c4ccccc43)c2)CC1 [Example 48, 3-[4-(1,1-dimethylethyl)phenyl]-1-({3-[4-({[2-(methyloxy)ethyl]oxy}carbonyl)-1-piperazinyl]phenyl}methyl)-1H-indole-2-carboxylic acid]	20 to 80%
COCCOc1cc(Cn2c(C(=O)O)c(-c3cc4ccccc4o3)c3ccccc32)cc(OCCOC)c1 [Example 60, 3-(1-benzofuran-2-yl)-1-[(3,5-bis{[2-(methyloxy)ethyl]oxy}phenyl)methyl]-1H-indole-2-carboxylic acid]	20 to 80%
COCCOc1cc(Cn2c(C(=O)O)c(-c3ccc(C(C)(C)C)cc3)c3ccccc32)cc(C(F)(F)F)c1 [Example 64, 3-[4-(1,1-dimethylethyl)phenyl]-1-{[3-{[2-(methyloxy)ethyl]oxy}-5-(trifluoromethyl)phenyl]methyl}-1H-indole-2-carboxylic acid]	20 to 80%
Cc1ccc(-c2cccc(C(=O)NCc3cccs3)c2)cc1Cn1c(C(=O)O)c(-c2ccc(C(C)(C)C)cc2)c2ccccc21 [Example 30, 3-[4-(1,1-dimethylethyl)phenyl]-1-[(4-methyl-3′-{[(2-thienylmethyl)amino]carbonyl}-3-biphenylyl)methyl]-1H-indole-2-carboxylic acid]	20 to 80%

Next, values leading:

Emax	Structure (SMILES)
20 to 80%	CC(C)(C)c1ccc(-c2c(C(=O)O)n(Cc3cccc(N4CCN(S(N)(=O)=O)CC4)c3)c3ccccc23)cc1 [Example 39, 1-({3-[4-(aminosulfonyl)-1-piperazinyl]phenyl}methyl)-3-[4-(1,1-dimethylethyl)phenyl]-1H-indole-2-carboxylic acid]
20 to 80%	CC(C)(C)c1ccc(-c2c(C(=O)O)n(Cc3cc(OCC4CC4)cc(-c4ccc(C(=O)O)cc4)c3)c3ccccc23)cc1 [Example 15, 1-({4′-carboxy-5-[(cyclopropylmethyl)oxy]-3-biphenylyl}methyl)-3-[4-(1,1-dimethylethyl)phenyl]-1H-indole-2-carboxylic acid]
20 to 80%	CC(C)(C)c1ccc(-c2c(C(=O)O)n(Cc3cc(OCc4ccccc4)cc(OCC4CC4)c3)c3ccccc23)cc1 [Example 1, 1-({3-[(cyclopropylmethyl)oxy]-5-[(phenylmethyl)oxy]phenyl}methyl)-3-[4-(1,1-dimethylethyl)phenyl]-1H-indole-2-carboxylic acid]
20 to 80%	COc1ccc(-c2ccc(C)c(Cn3c(C(=O)O)c(-c4ccc(C(C)(C)C)cc4)c4ccccc43)c2)cc1 [Example 13, 3-[4-(1,1-dimethylethyl)phenyl]-1-{[4-methyl-4′-(methyloxy)-3-biphenylyl]methyl}-1H-indole-2-carboxylic acid]
20 to 80%	O=C(O)c1c(Cc2cccc(C(F)(F)F)c2)c2ccccc2n1Cc1cc(OCCn2cccc2)cc(OCC2CC2)c1 [Example 54, 1-[(3-[(cyclopropylmethyl)oxy]-5-{[2-(1H-pyrrol-1-yl)ethyl]oxy}phenyl)methyl]-3-{[3-(trifluoromethyl)phenyl]methyl}-1H-indole-2-carboxylic acid]
20 to 80%	CN(C)CCCOc1cc(Cn2c(C(=O)O)c(-c3ccc(C(C)(C)C)cc3)c3ccccc32)cc(OCC2CC2)c1 [Example 43, 1-[(3-[(cyclopropylmethyl)oxy]-5-{[3-(dimethylamino)propyl]oxy}phenyl)methyl]-3-[4-(1,1-dimethylethyl)phenyl]-1H-indole-2-carboxylic acid]
20 to 80%	CC(C)(C)c1ccc(-c2c(C(=O)O)n(Cc3cccc(N4CCSCC4)c3)c3ccccc23)cc1 [Example 44, 3-[4-(1,1-dimethylethyl)phenyl]-1-{[3-(4-thiomorpholinyl)phenyl]methyl}-1H-indole-2-carboxylic acid]
20 to 80%	CC(C)(C)c1ccc(-c2c(C(=O)O)n(Cc3cccc(N4CCS(=O)(=O)CC4)c3)c3ccccc23)cc1 [Example 45, 3-[4-(1,1-dimethylethyl)phenyl]-1-{[3-(1,1-dioxido-4-thiomorpholinyl)phenyl]methyl}-1H-indole-2-carboxylic acid]
20 to 80%	Cc1ccc(-c2cccc(C(=O)NCCc3cccs3)c2)cc1Cn1c(C(=O)O)c(-c2ccc(C(C)(C)C)cc2)c2ccccc21 [Example 31]
20 to 80%	CN(C)CCOc1cc(Cn2c(C(=O)O)c(-c3ccc(C(C)(C)C)cc3)c3ccccc32)cc(OCC2CC2)c1 [Example 40, 1-[(3-[(cyclopropylmethyl)oxy]-5-{[2-(dimethylamino)ethyl]oxy}phenyl)methyl]-3-[4-(1,1-dimethylethyl)phenyl]-1H-indole-2-carboxylic acid]
20 to 80%	CC(C)(C)c1ccc(-c2c(C(=O)O)n(Cc3cccc(-c4cccc(S(C)(=O)=O)c4)c3)c3ccccc23)cc1 [Example 25, 3-[4-(1,1-dimethylethyl)phenyl]-1-{[3′-(methylsulfonyl)-3-biphenylyl]methyl}-1H-indole-2-carboxylic acid]
